The test deals with retinal pigment epithelial (RPE) cells. The experiment in a line: RPE exosome release. The class given is cell-based. To be noted: RPE cells incubated in media (DMEM) plus L-DOPA versus media alone (FIG. 3A). The text has this: Exosomes released from retinal pigment epithelial (RPE) cells can be isolated. […] Cells and cell debris are removed and exosomes are then purified. Note the present invention is not limited to this particular method of exosome isolation. In certain embodiments of the present invention, exosomes are not isolated for the measurement of levels of exosomes released from RPE cells. […] FIG. 3B illustrates GPR143 exosome release and its inhibition by L-DOPA. FIG. 4A and FIG. 4B show RPE exosome release studies in response to 30 minute treatments with 1 μM dopamine (FIG. 4A), 1 nM Dopamine 2 receptor (D2R) agonist (bromocriptine, FIG. 4B), and 1 nM Dopamine 2 receptor ([…]) antagonist (raclopride, FIG. 4B).

Molecules are shown by their SMILES.

With `N[C@@H](Cc1ccc(O)c(O)c1)C(=O)O` [L-DOPA], the “exosome release from RPE cells” value is listed as “significant reduction in exosome release”.

The record behind these values is patent US11927590B2, “Methods and systems for screening therapeutic compositions for treating age-related macular degeneration” (ARIZONA BOARD OF REGENTS ON BEHALF OF THE UNIVERSITY OF …, priority 2020, dated 2024).
